In publication PMC6199744, “Development of Chemical Proteomics for the Folateome and Analysis of the Kinetoplastid Folateome” (ACS Infectious Diseases, 2018):
Read-outs that look alike come from different tables or passages of the source.

Legend:
Assay type in all cases: binding
[1] = molecular target: T1, HeLa cell extract proteins (Homo sapiens, UniProt P55060)
T1 construct: endogenous in cells; host or cells: HeLa cell extract
T1 sequence (P55060 1-971): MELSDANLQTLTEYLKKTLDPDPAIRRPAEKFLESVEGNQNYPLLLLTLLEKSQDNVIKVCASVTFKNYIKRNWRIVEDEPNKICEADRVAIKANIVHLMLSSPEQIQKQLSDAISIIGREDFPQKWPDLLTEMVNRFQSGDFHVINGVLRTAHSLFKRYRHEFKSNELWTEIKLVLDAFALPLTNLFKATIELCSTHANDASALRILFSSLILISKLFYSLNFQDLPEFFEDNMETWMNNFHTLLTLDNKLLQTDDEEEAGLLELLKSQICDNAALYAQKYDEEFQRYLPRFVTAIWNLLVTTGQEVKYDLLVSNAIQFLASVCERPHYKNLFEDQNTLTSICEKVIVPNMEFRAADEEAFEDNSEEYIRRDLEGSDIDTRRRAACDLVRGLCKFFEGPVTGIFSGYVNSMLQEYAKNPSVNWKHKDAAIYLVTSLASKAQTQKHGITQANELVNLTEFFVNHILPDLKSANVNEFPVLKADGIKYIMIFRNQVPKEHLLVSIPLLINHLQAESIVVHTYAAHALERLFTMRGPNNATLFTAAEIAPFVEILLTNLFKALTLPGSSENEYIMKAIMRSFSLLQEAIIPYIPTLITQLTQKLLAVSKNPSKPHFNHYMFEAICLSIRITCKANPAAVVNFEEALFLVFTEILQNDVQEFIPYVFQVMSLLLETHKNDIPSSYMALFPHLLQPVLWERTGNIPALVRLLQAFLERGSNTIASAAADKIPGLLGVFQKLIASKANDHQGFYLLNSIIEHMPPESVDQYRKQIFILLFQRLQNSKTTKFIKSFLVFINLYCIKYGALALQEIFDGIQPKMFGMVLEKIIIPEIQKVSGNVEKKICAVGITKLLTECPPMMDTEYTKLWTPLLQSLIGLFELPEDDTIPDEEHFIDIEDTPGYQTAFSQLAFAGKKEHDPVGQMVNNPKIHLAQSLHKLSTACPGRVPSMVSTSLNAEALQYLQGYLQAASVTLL

[2] = molecular target: T2, HeLa cell extract proteins (Homo sapiens, UniProt P14678)
T2 construct: endogenous in cells; host or cells: HeLa cell extract

[3] = molecular target: T3, HeLa cell extract proteins (Homo sapiens, UniProt P04179)
T3 construct: endogenous in cells; host or cells: HeLa cell extract
T3 sequence (P04179 25-222): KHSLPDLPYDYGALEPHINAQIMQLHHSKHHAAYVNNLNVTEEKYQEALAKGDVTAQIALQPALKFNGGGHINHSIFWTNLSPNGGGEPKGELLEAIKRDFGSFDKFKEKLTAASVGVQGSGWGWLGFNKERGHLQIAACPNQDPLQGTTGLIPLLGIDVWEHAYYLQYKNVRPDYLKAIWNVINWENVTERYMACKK

[4] = molecular target: T4, HeLa cell extract proteins (Homo sapiens, UniProt P13807)
T4 construct: endogenous in cells; host or cells: HeLa cell extract
T4 sequence (P13807 1-737): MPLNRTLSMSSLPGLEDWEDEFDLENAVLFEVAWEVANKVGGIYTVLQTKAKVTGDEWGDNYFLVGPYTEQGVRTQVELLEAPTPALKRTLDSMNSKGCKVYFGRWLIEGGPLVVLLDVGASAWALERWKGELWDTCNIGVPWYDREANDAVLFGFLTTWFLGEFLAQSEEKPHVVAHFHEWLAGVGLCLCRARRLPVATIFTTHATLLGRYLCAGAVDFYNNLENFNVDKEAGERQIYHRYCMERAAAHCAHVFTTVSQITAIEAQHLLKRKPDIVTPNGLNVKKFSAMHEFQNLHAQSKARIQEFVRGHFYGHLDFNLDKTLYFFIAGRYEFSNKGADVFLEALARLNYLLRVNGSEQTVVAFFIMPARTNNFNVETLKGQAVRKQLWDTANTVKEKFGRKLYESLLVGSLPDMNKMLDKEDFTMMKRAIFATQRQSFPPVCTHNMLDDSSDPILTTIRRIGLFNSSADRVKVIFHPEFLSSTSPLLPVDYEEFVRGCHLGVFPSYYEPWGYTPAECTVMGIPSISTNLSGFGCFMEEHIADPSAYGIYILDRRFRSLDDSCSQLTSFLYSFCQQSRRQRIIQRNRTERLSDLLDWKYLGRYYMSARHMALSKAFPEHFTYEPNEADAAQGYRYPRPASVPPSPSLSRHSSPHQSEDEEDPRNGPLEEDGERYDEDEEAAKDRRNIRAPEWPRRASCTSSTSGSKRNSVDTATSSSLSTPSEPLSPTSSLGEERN

[5] = molecular target: T5, HeLa cell extract proteins (Homo sapiens, UniProt O75521)
T5 construct: endogenous in cells; host or cells: HeLa cell extract
T5 sequence (O75521 39-394): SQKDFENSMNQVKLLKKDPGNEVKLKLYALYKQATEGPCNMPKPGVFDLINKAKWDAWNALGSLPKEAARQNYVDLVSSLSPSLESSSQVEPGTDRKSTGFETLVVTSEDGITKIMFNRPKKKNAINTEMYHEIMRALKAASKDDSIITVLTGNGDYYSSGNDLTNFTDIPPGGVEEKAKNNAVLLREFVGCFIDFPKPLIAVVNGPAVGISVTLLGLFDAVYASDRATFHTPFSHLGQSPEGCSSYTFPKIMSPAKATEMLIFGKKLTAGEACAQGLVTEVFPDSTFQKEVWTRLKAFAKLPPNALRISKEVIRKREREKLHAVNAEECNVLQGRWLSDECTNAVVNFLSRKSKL

[6] = molecular target: T6, HeLa cell extract proteins (Homo sapiens, UniProt Q9NX63)
T6 construct: endogenous in cells; host or cells: HeLa cell extract
T6 sequence (Q9NX63 1-227): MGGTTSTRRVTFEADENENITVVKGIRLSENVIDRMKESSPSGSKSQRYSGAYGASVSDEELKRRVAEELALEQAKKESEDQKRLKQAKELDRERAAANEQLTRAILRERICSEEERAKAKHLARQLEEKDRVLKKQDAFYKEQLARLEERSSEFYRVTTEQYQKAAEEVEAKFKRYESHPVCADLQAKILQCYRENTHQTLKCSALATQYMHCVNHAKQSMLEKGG

[7] = molecular target: T7, HeLa cell extract proteins (Homo sapiens, UniProt O75874)
T7 construct: endogenous in cells; host or cells: HeLa cell extract
T7 sequence (O75874 whole entry): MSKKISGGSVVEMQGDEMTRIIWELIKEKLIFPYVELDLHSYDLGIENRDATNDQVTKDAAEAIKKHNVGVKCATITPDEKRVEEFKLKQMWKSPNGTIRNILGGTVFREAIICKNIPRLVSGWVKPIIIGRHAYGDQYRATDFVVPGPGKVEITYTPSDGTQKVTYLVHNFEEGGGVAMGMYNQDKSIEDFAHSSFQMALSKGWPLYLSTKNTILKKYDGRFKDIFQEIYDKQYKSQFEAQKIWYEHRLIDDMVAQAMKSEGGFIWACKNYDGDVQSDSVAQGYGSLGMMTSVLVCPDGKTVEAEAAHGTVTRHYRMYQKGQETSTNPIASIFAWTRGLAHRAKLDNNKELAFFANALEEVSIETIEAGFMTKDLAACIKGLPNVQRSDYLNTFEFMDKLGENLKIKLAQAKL

[8] = molecular target: T8, HeLa cell extract proteins (Homo sapiens, UniProt P38646)
T8 construct: endogenous in cells; host or cells: HeLa cell extract
T8 sequence (P38646 47-679): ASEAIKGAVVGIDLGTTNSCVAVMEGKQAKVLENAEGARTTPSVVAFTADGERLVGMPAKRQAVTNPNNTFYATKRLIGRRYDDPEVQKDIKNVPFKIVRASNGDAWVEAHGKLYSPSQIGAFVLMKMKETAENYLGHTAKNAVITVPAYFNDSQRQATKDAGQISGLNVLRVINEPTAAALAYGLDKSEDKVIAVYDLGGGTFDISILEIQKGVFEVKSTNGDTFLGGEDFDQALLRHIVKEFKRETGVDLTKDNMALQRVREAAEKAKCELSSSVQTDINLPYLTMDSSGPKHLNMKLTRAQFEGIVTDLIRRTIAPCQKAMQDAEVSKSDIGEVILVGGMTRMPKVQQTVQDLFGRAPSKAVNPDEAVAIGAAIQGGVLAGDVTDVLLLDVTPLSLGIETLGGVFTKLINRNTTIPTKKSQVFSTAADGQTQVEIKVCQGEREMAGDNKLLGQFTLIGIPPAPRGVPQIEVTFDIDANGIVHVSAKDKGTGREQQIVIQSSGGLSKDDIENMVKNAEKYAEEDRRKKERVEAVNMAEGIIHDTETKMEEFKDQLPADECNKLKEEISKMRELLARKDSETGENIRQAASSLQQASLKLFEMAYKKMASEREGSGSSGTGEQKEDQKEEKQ

[9] = HeLa, protein IDH1 (ISOCITRATE DEHYDROGENASE [NADP] CYTOPLASMIC.)

| SMILES | fold changes relative to vehicle control ([1]; protein CSE1L, HeLa) | fold changes relative to vehicle control ([2]; HeLa, captured protein SNRPB) | fold changes relative to vehicle control ([3]; HeLa, protein SOD2) | fold changes relative to vehicle control ([4]; HeLa, protein GYS1) | fold changes relative to vehicle control ([5]; HeLa, captured protein PECI) | fold changes relative to vehicle control ([6]; HeLa, protein CHCHD3) | fold changes relative to vehicle control ([7]; HeLa, captured protein IDH1) | fold changes relative to vehicle control ([8]; HeLa, captured protein HSPA9) | fold changes relative to vehicle control ([2]; protein SNRPB, HeLa) | fold changes relative to vehicle control ([3]; protein SOD2, HeLa) | fold changes relative to vehicle control ([4]; captured protein GYS1, HeLa) | fold changes relative to vehicle control ([5]; protein PECI, HeLa) | fold changes relative to vehicle control ([6]; captured protein CHCHD3, HeLa) | fold changes relative to vehicle control [7, 9] | fold changes relative to vehicle control ([8]; protein HSPA9, HeLa) | also measured |
| --- | --- | --- | --- | --- | --- | --- | --- | --- | --- | --- | --- | --- | --- | --- | --- | --- |
| Nc1nc2c(c(=O)[nH]1)N(C=O)C(CNc1ccc(C(=O)N[C@@H](CCC(=O)O)C(=O)O)cc1)CN2 (some centres unmarked) [LEU, leucovorin] | 0.94 | 1.16 | 1.14 | 0.97 | 1.06 | 0.92 | 1.14 | 1.05 | – | – | – | – | – | – | – | – |
| Nc1nc2[nH]cc(CCc3ccc(C(=O)N[C@@H](CCC(=O)O)C(=O)O)cc3)c2c(=O)[nH]1 [PTX, pemetrexed] | – | – | – | – | – | – | – | – | – | – | – | – | – | – | – | fold changes relative to vehicle control [1]: 0.88; fold changes relative to vehicle control [2]: 1.12; fold changes relative to vehicle control [3]: 1.29; fold changes relative to vehicle control [4]: 0.94; fold changes relative to vehicle control [5]: 1.01; fold changes relative to vehicle control [6]: 0.98; fold changes relative to vehicle control [7]: 1.18; fold changes relative to vehicle control [8]: 0.97 |
| CCCCCCOc1ccc(Cc2cnc(N)nc2N)cc1 [compound 1] | 1.02 | – | – | – | – | – | – | – | 1.17 | 1.91 | 0.9 | 0.99 | 0.93 | 1.52 fold | 0.95 | – |
| CCCCCCOc1cccc(Cc2cnc(N)nc2N)c1 [compound 2] | 1.52 | – | – | – | – | – | – | – | 1.46 | 2.29 | 0.84 | 0.82 | 1.08 | 2.46 fold | 1.1 | – |
| Nc1nc2cccc(-c3ccccc3)c2n1Cc1ccc(Cl)c(Cl)c1 [compound 3] | 1.06 | – | – | – | – | – | – | – | 1.04 | 1.43 | 0.93 | 1.05 | 1.02 | 0.95 fold | 0.98 | – |
| NCCOCCOCC(=O)Nc1nc2ncc(CNc3ccc(C(=O)NC(CCC(=O)O)C(=O)O)cc3)nc2c(=O)[nH]1 (centres unmarked) [compound 6] | 1.09 | 1.16 | 1.65 | 0.98 | 0.96 | 1 | 1.29 | 0.99 | – | – | – | – | – | – | – | – |
| NCCCNc1ccc(C(=O)NC(CCC(=O)O)C(=O)O)cc1 (centres unmarked) [compound 7] | 1.04 | 1.16 | 1.35 | 0.98 | 1.03 | 0.99 | 0.96 | 0.97 | – | – | – | – | – | – | – | – |
